This passage reports IC50 results from EP1377579B1 (Aventis Pharmaceuticals Inc., priority 2000, dated 2002).

Where a name gives a salt, the structure may show the parent alone. Read-outs that look alike come from different tables or passages of the source.

Assay [1] deals with cdk2/cyclin E (Homo sapiens, UniProt P24941). Put plainly: Cyclin-dependent kinase assay, cdk2/cyclin E. To be noted: CDK2 IC50, nM, GST-pRb substrate, 10 µM ATP.
For assay [2], the target named is cdk1/cyclin B (Homo sapiens, UniProt P06493). Put plainly: Cyclin-dependent kinase assay, cdk1/cyclin B. To be noted: CDK1 IC50, nM, Histone H1, 10 µM ATP.
cdk1/cyclin B, sequence (P06493 whole entry): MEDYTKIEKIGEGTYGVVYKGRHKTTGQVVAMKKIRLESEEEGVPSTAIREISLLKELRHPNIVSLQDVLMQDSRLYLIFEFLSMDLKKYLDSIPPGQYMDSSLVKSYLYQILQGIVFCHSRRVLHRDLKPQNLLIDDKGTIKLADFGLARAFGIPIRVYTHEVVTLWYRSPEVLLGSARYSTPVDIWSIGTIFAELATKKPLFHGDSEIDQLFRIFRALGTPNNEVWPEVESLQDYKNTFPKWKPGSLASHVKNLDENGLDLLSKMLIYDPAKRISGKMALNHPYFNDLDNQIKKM
cdk1/cyclin B, sequence (P14635 whole entry partner): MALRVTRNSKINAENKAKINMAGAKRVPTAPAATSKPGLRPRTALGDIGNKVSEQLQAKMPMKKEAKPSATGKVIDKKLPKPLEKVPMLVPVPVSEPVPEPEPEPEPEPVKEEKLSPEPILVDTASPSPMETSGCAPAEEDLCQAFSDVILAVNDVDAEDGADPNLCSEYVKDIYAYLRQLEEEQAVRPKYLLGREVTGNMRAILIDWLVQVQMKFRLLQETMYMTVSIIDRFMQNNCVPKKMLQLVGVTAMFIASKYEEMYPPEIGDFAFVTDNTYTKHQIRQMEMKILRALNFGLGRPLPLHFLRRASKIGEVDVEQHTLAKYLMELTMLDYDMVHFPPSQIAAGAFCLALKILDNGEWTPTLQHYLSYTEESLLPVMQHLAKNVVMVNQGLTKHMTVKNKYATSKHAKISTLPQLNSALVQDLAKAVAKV
The test system of assay [3] is PC-3. Put plainly: In vitro proliferation assay (MTT), PC-3. Type of assay: cell-based, human. The following applies: Homo sapiens. An outline of the steps:
(§1)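 Cells plated at 1000 to 2500 cells/well, allowed to attach overnight, then exposed to compounds for 3 days. Viable cells estimated by MTT dye, solubilized in DMSO, absorbance at 570 nm; IC50 taken from raw data.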

Assay [4] deals with NCI-H460. Put plainly: In vitro proliferation assay (MTT), NCI-H460. Format: cell-based. The following applies: Homo sapiens. An outline of the steps: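 Cells were plated at 1000 to 2500 cells/well and allowed to attach overnight before compound exposure. After 3 days, viable cells were estimated with MTT dye for 2 to 4 hr at 37 C, then solubilized in DMSO and read at 570 nm. IC50s were derived from MTT or SRB raw data.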

The test system of assay [5] is Colo-205. Put plainly: In vitro proliferation assay (MTT), Colo-205. Format: cell-based. The following applies: Homo sapiens. An outline of the steps:
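Colo-205 cells were seeded at 1000–2500 cells/well and allowed to attach overnight, then exposed to compound for 3 days. Viable cells were measured by MTT reduction (2–4 h, 37 °C), with DMSO-solubilised dye read at 570 nm. IC50 was derived from concentration–response data.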

In assay [6] the test system is MDA-MB-435. Put plainly: In vitro proliferation assay (MTT), MDA-MB-435. Format: cell-based, human. The following applies: Homo sapiens. Put shortly: as §1
The test system of assay [7] is Jurkat. Put plainly: In vitro proliferation assay (MTT), Jurkat. Type of assay: cell-based. To be noted: Homo sapiens, read-out: Jurkat Leuk. (IC50 µM). The protocol: (§2) The proliferation of tumor cells can be measured using a tetrazolium salt-based assay known as the MTT (3-[4,5-Dimethylthiazol-2-yl]-2,5-diphenyltetrazolium bromide) assay. The proliferation test is performed essentially as described by Carmichael et al., Cancer Res. 47: 936-942, 1987. For the assay, the cell lines are plated onto 96 well plates at 1000 to 2500 cells/well (depending on the properties of the individual cell lines), left to attach and recover overnight. […] After 3 days, the cells are incubated with MTT dye (3-[4,5-Dimethylthiazol-2-yl]-2,5-diphenyltetrazolium bromide, Sigma # M5655, 10 mg/ml in Hank's Buffered Saline) to estimate the amount of live cells remaining vs. concentration for the test compounds. Specifically, MTT solution is added to a final concentration of […] and the plates incubated at 37 C for 2 to 4 hr. The MTT and culture medium is then removed from the cultures and 200 µl of DMSO is added to solubilize the dye from the cell layer. The absorbance at 570 nm is determined for each culture using a Spectramax plate reader (Molecular Devices).
(§3) IC50s were determined from the raw data from either the MTT or SRB assays.
(§4) All of the cell lines were obtained from American Type Tissue Collection, with the ATCC accession number in parentheticals. MCF-7 and MDA-MB-231 cells were grown in improved minimum essential medium (Biofluids) without phenol red, supplemented with 5 % fetal bovine serum, 0.01 mg/ml gentamicin and 3 mM L-glutamine. All of the other cell lines were grown in RPMI 1640 medium (Life Technologies) supplemented with 5 % fetal bovine serum, 0.01 mg/ml gentamicin and 3 mM L-glutamine TABLE 3

Assay [8] concerns HL-60. Put plainly: In vitro proliferation assay (MTT), HL-60. Type of assay: cell-based. To be noted: Homo sapiens. As for the experimental part:
as §2, §3, §4

The target of assay [9] is cdk4/cyclin D1 (Homo sapiens, UniProt P11802). Put plainly: Cyclin-dependent kinase assay, cdk4/cyclin D1. Format: biochemical. To be noted: cyclin D1/cdk4; GST-pRb substrate, 10 µM ATP.
cdk4/cyclin D1, sequence (P11802 whole entry): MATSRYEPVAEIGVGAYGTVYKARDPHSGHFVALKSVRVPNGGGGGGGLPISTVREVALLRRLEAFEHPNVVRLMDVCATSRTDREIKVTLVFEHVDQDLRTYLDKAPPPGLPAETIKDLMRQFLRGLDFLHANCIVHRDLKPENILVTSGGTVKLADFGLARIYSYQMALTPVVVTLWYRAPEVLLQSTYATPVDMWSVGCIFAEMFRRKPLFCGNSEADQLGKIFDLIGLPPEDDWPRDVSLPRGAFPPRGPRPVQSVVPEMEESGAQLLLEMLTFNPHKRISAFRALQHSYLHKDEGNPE
cdk4/cyclin D1, sequence (P24385 whole entry partner): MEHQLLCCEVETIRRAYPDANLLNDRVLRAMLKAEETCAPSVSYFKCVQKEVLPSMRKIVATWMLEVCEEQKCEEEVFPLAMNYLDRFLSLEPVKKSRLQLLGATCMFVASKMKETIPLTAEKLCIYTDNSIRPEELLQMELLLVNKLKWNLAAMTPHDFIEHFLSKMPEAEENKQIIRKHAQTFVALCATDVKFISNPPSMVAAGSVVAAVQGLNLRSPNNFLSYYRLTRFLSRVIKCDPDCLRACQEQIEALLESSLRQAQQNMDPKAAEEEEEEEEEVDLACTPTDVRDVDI
The mark [10] stands for this setting: PC-3, MTT assay, value (SD, n) where given, read-out: PC-3 Prostate (IC50 µM).
The mark [11] stands for this setting: NCI-H460, MTT assay, value (SD, n) where given, read-out: H-460 Lung (IC50 µM).
Setting [12] is: COLO 205, MTT assay, value (SD, n) where given, read-out: Colo-205 Colon (IC50 µM).
[13] abbreviates: MDA-MB-435, MTT assay, value (SD, n) where given, read-out: MB-435 Breast (IC50 µM).
[14] abbreviates: MTT assay, value (SD, n) where given.
Where [15] appears, read: HL-60, MTT assay, value (SD, n) where given, read-out: HL-60 Leuk. (IC50 µM).

As for `N[C@H]1CC[C@H](Nc2nc(NC3CCN(C(=O)Nc4cccc(Cl)c4)CC3)c3ncn(C4CCCC4)c3n2)CC1` [compound 165, trans-4-[2-(4-Amino-cyclohexylamino)-9-cyclopentyl-9H-purin-6-ylamino]-piperidine-1-carboxylic acid (3-chloro-phenyl)-amide dihydrochloride], the IC50 worked out at 21 nM in assay [1]; 11 nM in [2]; 0.13 µM in assay [3] (setting [10]); 0.2 µM in [4] (setting [11]); 0.02 µM in assay [5] (setting [12]); 0.08 µM in [6] (setting [13]). The half-maximal inhibitory concentration (IC50) is 0.22 µM in assay [7] (setting [14]), less than 0.02 µM in assay [8] (setting [15]) and 711 nM in assay [9].
Turning to `N[C@H]1CC[C@H](Nc2nc(NC3CCN(C(=O)NC45CC6CC(CC(C6)C4)C5)CC3)c3ncn(C4CCCC4)c3n2)CC1` (relative stereo) [compound 181, trans-4-[2-(4-Amino-cyclohexylamino)-9-cyclopentyl-9H-purin-6-ylamino]-piperidine-1-carboxylic acid adamantan-1-ylamide dihydrochloride], the IC50 is 548 nM in assay [1]; 67 nM in [2]; 0.25 µM in assay [3] (setting [10]); 0.29 µM in assay [4] (setting [11]); 0.04 µM in [5] (setting [12]); 0.24 µM in [6] (setting [13]). In addition, the IC50 in assay [7] (setting [14]) is 0.33 µM; in [8] (setting [15]) it was 0.06 µM; in assay [9], 1300 nM.
As for `N[C@H]1CC[C@H](Nc2nc(NC3CCN(C(=O)Oc4ccccc4[N+](=O)[O-])CC3)c3ncn(C4CCCC4)c3n2)CC1` [compound 99, trans-4-[2-(4-Amino-cyclohexylamino)-9-cyclopentyl-9H-purin-6-ylamino]-piperidine-1-carboxylic acid 2-nitro-phenyl ester dihydrochloride], the IC50 is 9 nM in assay [1]; 33 nM in assay [2]; 0.2 µM in assay [3] (PC-3, read-out: PC-3 Prostate (IC50 µM)); 0.16 µM in assay [4] (NCI-H460, read-out: H-460 Lung (IC50 µM)); 0.05 µM in assay [5] (COLO 205, read-out: Colo-205 Colon (IC50 µM)); 0.12 µM in assay [6] (MDA-MB-435, read-out: MB-435 Breast (IC50 µM)). For the same compound, the IC50 in assay [7] is 0.11 µM; in assay [8] (HL-60, read-out: HL-60 Leuk. (IC50 µM)), less than 0.02 µM; in assay [9], 1520 nM.
With `N[C@H]1CC[C@H](Nc2nc(NC3CCN(C(=O)Nc4ccccc4-c4ccccc4)CC3)c3ncn(C4CCCC4)c3n2)CC1` [compound 187, trans-4-[2-(4-Amino-cyclohexylamino)-9-cyclopentyl-9H-purin-6-ylamino]-piperidine-1-carboxylic acid biphenyl-2-yl-amide dihydrochloride], the IC50 in assay [1] stood at 61 nM; in assay [2] it was 280 nM; in [3] (setting [10]), 0.19 µM; in [4] (setting [11]), 0.25 µM; in assay [5] (setting [12]) it was 0.19 µM; in assay [6] (setting [13]) it was 0.21 µM. Also, the figures for the IC50 in [7] (setting [14]), in [8] (setting [15]) and in assay [9] were 0.35 µM, less than 0.02 µM and 831 nM, respectively.
Regarding `CSc1ccc(NC(=O)N2CCC(Nc3nc(N[C@H]4CC[C@H](N)CC4)nc4c3ncn4C3CCCC3)CC2)cc1` [compound 186, trans-4-[2-(4-Amino-cyclohexylamino)-9-cyclopentyl-9H-purin-6-ylamino]-piperidine-1-carboxylic acid (4-methylsulfanyl-phenyl)-amide dihydrochloride], the IC50 in [1] amounted to 56 nM; in assay [2], 11 nM; in assay [3] (setting [10]), 0.16 µM; in assay [4] (setting [11]), 0.28 µM; in assay [5] (setting [12]), 0.03 µM; in assay [6] (setting [13]), 0.09 µM. Besides, the IC50 is 0.21 µM in assay [7] (setting [14]), less than 0.02 µM in [8] (setting [15]) and 465 nM in [9].
